Measured values: patent US20230296616A1, “ARGININE FLUORESCENT PROBE, PREPARATION METHOD THEREFOR AND APPLICATION THEREOF” (East China University of Science and Technology, priority 2020, published 2023)

Tests used:
[1] = specific detection of 20 amino acids by arginine fluorescent sensors; format: biochemical; conditions: FIG. 8
[2] = target: T1, STM4351-cpYFP fusion protein, insertion site 107/111, SEQ ID NO: 15 (arginine-binding protein STM4351 derived from Salmonella Typhimurium, SEQ ID NO: 1) (Salmonella enterica, UniProt Q8ZKA9, DELINS108-110[…]); experiment: screening of purified fusion protein for arginine response; format: biochemical; conditions: cpYFP at 107/111; 100 mM arginine vs without arginine
T1 construct: His-tag, pET28a, E. coli JM109(DE3), purified
Protocol: (§1) • 1. The pET28a based arginine sensor plasmid was transformed into JM109 (DE3), incubated inverted overnight, and the clones were picked from the plates into 250 ml Erlenmeyer flasks, placed in a shaker at 37° C. and incubated at 220 rpm to OD=0.4-0.8, then 1/1000 (V/V) of IPTG (1 M) was added to induce expression at 18° C. for 24-36 h. • 2. Upon completion of inducible expression, cells were harvested by centrifugation at 4000 rpm for 30 min, resuspended in 50 mM phosphate buffer and disrupted ultrasonically until the broth were clear, centrifuged at 9600 rpm at 4° C. for 20 min. • 3. The centrifuged supernatant was used to obtain protein by purification through a self packed nickel column affinity chromatography column, and the protein obtained after nickel column affinity chromatography was further used to obtain protein dissolved in 20 mM MOPS buffer (pH 7.4) or phosphate buffer PBS. • 4. After purified arginine-binding protein muteins were subjected to SDS-PAGE, sensors were diluted to a protein solution having a final concentration of 5-10 μM using assay buffer (100 mm HEPES, 100 mM NaCl, pH 7.3) or phosphate buffer PBS. Arginine was formulated as a stock solution at a final concentration of 1 M with assay buffer (20 mM MOPS, pH 7.4) or phosphate buffer PBS. • 5. 100 μl 5 μM of protein solution was taken, incubated at 37° C. for 5 min, arginine was added to mix to a final concentration of 100 mM, respectively, the optical absorption of the protein at 340 nm was determined using a multifunctional fluorescence microplate reader. • 6. 100 μl 1 μM of fluorescent sensor solution was taken, incubated at 37° C. for 5 min, arginine was added for titration, and the fluorescence intensity of 528 nm emission after 485 nm fluorescence excitation of the protein was measured. The fluorescence excitation and emission determination of the samples were done using a multifunctional fluorescence microplate reader. • 7. 100 μl 1 μM of fluorescent sensor solution was taken, incubated at 37° C. for 5 min, and arginine was added to determine the absorption and fluorescence spectra of the sensor proteins. Determination of the absorption and fluorescence spectra of the samples was done by spectrophotometer and spectrofluorometer.

[3] = target: T2, STM4351-cpYFP fusion protein, insertion site 200/205, SEQ ID NO: 29 (arginine-binding protein STM4351 derived from Salmonella Typhimurium, SEQ ID NO: 1) (Salmonella enterica, UniProt Q8ZKA9, DELINS201-204[…]); experiment: as above; format: biochemical; conditions: cpYFP at 200/205; 100 mM arginine vs without arginine
T2 construct: His-tag, pET28a, E. coli JM109(DE3), purified
Protocol: as §1

[4] = target: T3, STM4351-cpYFP fusion protein, insertion site 199/200, SEQ ID NO: 22 (arginine-binding protein STM4351 derived from Salmonella Typhimurium, SEQ ID NO: 1) (Salmonella enterica, UniProt Q8ZKA9, INS199[…]); experiment: as above; format: biochemical; conditions: cpYFP at 199/200; 100 mM arginine vs without arginine
T3 construct: His-tag, pET28a, E. coli JM109(DE3), purified
Protocol: as §1

[5] = target: T4, STM4351-cpYFP fusion protein, insertion site 104/110, SEQ ID NO: 7 (arginine-binding protein STM4351 derived from Salmonella Typhimurium, SEQ ID NO: 1) (Salmonella enterica, UniProt Q8ZKA9, DELINS105-109[…]); experiment: as above; format: biochemical; conditions: cpYFP at 104/110; 100 mM arginine vs without arginine
T4 construct: His-tag, pET28a, E. coli JM109(DE3), purified
Protocol: as §1

[6] = target: T5, STM4351-cpYFP fusion protein, insertion site 200/203, SEQ ID NO: 27 (arginine-binding protein STM4351 derived from Salmonella Typhimurium, SEQ ID NO: 1) (Salmonella enterica, UniProt Q8ZKA9, DELINS201-202[…]); experiment: as above; format: biochemical; conditions: cpYFP at 200/203; 100 mM arginine vs without arginine
T5 construct: His-tag, pET28a, E. coli JM109(DE3), purified
Protocol: as §1

[7] = target: T6, STM4351-cpYFP fusion protein, insertion site 105/110, SEQ ID NO: 11 (arginine-binding protein STM4351 derived from Salmonella Typhimurium, SEQ ID NO: 1) (Salmonella enterica, UniProt Q8ZKA9, DELINS107-109[…]); experiment: as above; format: biochemical; conditions: cpYFP at 105/110; 100 mM arginine vs without arginine
T6 construct: His-tag, pET28a, E. coli JM109(DE3), purified
Protocol: as §1

[8] = target: T7, STM4351-199/200-cpYFP, SEQ ID NO: 22, expressed in the cytosol of HeLa cells (arginine-binding protein STM4351 derived from Salmonella Typhimurium, SEQ ID NO: 1 (Salmonella enterica, UniProt Q8ZKA9, INS199[…]); experiment: dynamic monitoring of arginine transmembrane transport in HeLa cells; format: cell-based; conditions: after 2 hours of starvation, 10 mM arginine, 20 minutes
T7 construct: expressed in cytosol of HeLa cells from pAAV plasmid
Protocol: • 1. PAAV-based arginine optical sensor plasmids were transfected into HeLa by using the transfection reagent Lipofectamine2000 (Invitrogen) and incubated in a cell incubator at 37° C. with 5% CO2. After the exogenous gene was fully expressed for 24˜36 hours, the fluorescence detection was performed. • 2. After induction of expression, adherent HeLa cells were washed three times with PBS and placed in HMS solution for fluorescence microscopy and microplate reader assays, respectively.
36 hours after transfection of HeLa cells with plasmids encoding cytosolically expressed optical sensor STM4351-199/200-cpYFP, cells were rinsed using PBS, placed in HMS solution, and then changes in the ratio of the fluorescence intensity at 528 nm emission excited at 420 nm to that at 528 nm emission excited at 485 nm were detected over 40 min. After 2 hours of starvation, the ratio 485/420 increased gradually after adding 10 mM arginine for 20 minutes, and the highest ratio was 2.2 times. Same as STM4351-105/110-cpYFP sensor and STM4351-200/203-cpYFP sensor.

[9] = target: T8, STM4351-104/110-cpYFP, SEQ ID NO: 7 (arginine-binding protein STM4351 derived from Salmonella Typhimurium, SEQ ID NO: 1) (Salmonella enterica, UniProt Q8ZKA9, DELINS105-109[…]); experiment: fluorescence spectra of sensor with and without arginine; format: biochemical; conditions: 500 mM vs 0 mM arginine
T8 construct: His-tag, pET28a, E. coli JM109(DE3), purified
Protocol: (§2) • 1. The pET28a based arginine sensor plasmid was transformed into JM109 (DE3), incubated inverted overnight, and the clones were picked from the plates into 250 ml Erlenmeyer flasks, placed in a shaker at 37° C. and incubated at 220 rpm to OD=0.4-0.8, then 1/1000 (V/V) of IPTG (1 M) was added to induce expression at 18° C. for 24-36 h. • 2. Upon completion of inducible expression, cells were harvested by centrifugation at 4000 rpm for 30 min, resuspended in 50 mM phosphate buffer and disrupted ultrasonically until the broth were clear, centrifuged at 9600 rpm at 4° C. for 20 min. • 3. […] 100 μl 5 μM of protein solution was taken, incubated at 37° C. for 5 min, arginine was added to mix to a final concentration of 100 mM, respectively, the optical absorption of the protein at 340 nm was determined using a multifunctional fluorescence microplate reader. • 6. 100 μl 1 μM of fluorescent sensor solution was taken, incubated at 37° C. for 5 min, arginine was added for titration, and the fluorescence intensity of 528 nm emission after 485 nm fluorescence excitation of the protein was measured. The fluorescence excitation and emission determination of the samples were done using a multifunctional fluorescence microplate reader. • 7. […] Determination of the absorption and fluorescence spectra of the samples was done by spectrophotometer and spectrofluorometer. […]

[10] = target: T2, STM4351-cpYFP fusion protein, insertion site 200/205, SEQ ID NO: 29 (arginine-binding protein STM4351 derived from Salmonella Typhimurium, SEQ ID NO: 1); experiment: concentration gradient arginine detection (fluorescence ratio titration)
Protocol: as §1

[11] = target: T3, STM4351-cpYFP fusion protein, insertion site 199/200, SEQ ID NO: 22 (arginine-binding protein STM4351 derived from Salmonella Typhimurium, SEQ ID NO: 1); experiment: as above
Protocol: as §1

[12] = target: T5, STM4351-cpYFP fusion protein, insertion site 200/203, SEQ ID NO: 27 (arginine-binding protein STM4351 derived from Salmonella Typhimurium, SEQ ID NO: 1); experiment: as above
Protocol: as §1

[13] = target: T6, STM4351-cpYFP fusion protein, insertion site 105/110, SEQ ID NO: 11 (arginine-binding protein STM4351 derived from Salmonella Typhimurium, SEQ ID NO: 1); experiment: as above
Protocol: as §1

[14] = target: T9, STM4351-107/111-cpYFP variant S30N, SEQ ID NO: 40 (arginine-binding protein STM4351 derived from Salmonella Typhimurium) (Salmonella enterica, UniProt Q8ZKA9, DELINS108-110[…]/S30N); experiment: fluorescence detection of mutated cpYFP optical sensor; format: biochemical; conditions: S30N-107/111; detected according to Example 2
T9 construct: His-tag, pET28a, E. coli JM109(DE3), purified
Protocol: as §2

[15] = target: T10, STM4351-107/111-cpYFP variant D177N, SEQ ID NO: 41 (arginine-binding protein STM4351 derived from Salmonella Typhimurium) (Salmonella enterica, UniProt Q8ZKA9, D177N/DELINS108-110[…]); experiment: as above; format: biochemical; conditions: D177N-107/111; detected according to Example 2
T10 construct: His-tag, pET28a, E. coli JM109(DE3), purified
Protocol: as §2

Compound	specificity for arginine [1]	response to arginine relative to control [2]	response to arginine relative to control [3]	response to arginine relative to control [4]	response to arginine relative to control [5]	response to arginine relative to control [6]	response to arginine relative to control [7]	highest ratio 485/420 [8] [times]	decrease of fluorescence intensity excited at 420 nm ([9]; excited at 420 nm) [times]	increase in fluorescence intensity under excitation at 485 nm ([9]; excited at 485 nm) [fold]	change amplitude [10] [times]	change amplitude [11] [times]	change amplitude [12] [times]	change amplitude [13] [times]	response to arginine relative to control [14]	response to arginine relative to control [15]
199/201: arginine sensor: cpYFP inserted at site 199/201 of STM4351	good specificity for arginine															
N=C(N)NCCC[C@H](N)C(=O)O [arginine]		more than 2 fold	more than 2 fold	more than 2 fold	more than 2 fold	more than 2 fold	more than 2 fold	2.2	1.4	2.0	3.0	11.0	8.6	4.3	more than 3 times	more than 3 times
